Results taken from patent publication US7427627B2, “N-(4-(4-methylthiazol-5-yl) pyrimidin-2-yl)-N-phenylamines as antiproliferative compounds” (Cyclacel Limited, priority 2001, dated 2008).
Like-named read-outs stand apart in the source and are kept apart here.

How the values were obtained:
HT29 = test: 72-h MTT cytotoxicity assay, HT29; assay type: cell-based; conditions: Homo sapiens
In short: (§1)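 Viability measured by MTT conversion after 72 h compound exposure at 37 °C (1/3 serial dilutions from DMSO, triplicates). Cells plated according to doubling time the night before; MTT given 4 h in the dark, dye dissolved in DMSO.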

HCT-116 = test: 72-h MTT assay, HCT-116; assay type: cell-based; conditions: Homo sapiens, HCT-116, 72 h, read-out: 72-h MTT IC50 HCT-116; Table 3; Colon
Protocol: (§2) The compounds from the examples above were subjected to a standard cellular proliferation assay using human tumour cell lines obtained from the ATCC (American Type Culture Collection, 10801 University Boulevard, Manessas, Va. 20110-2209, USA). Standard 72-h MTT (thiazolyl blue; 3-[4,5-dimethylthiazol-2-yl]-2,5-diphenyltetrazolium bromide) assays were performed (Haselsberger, K.; Peterson, D. C.; Thomas, D. G.; Darling, J. L. Anti Cancer Drugs 1996, 7, 331-8; Loveland, B. E.; Johns, T. G.; Mackay, I. R.; Vaillant, F.; Wang, Z. X.; Hertzog, P. J. Biochemistry International 1992, 27, 501-10). In short: cells were seeded into 96-well plates according to doubling time and incubated overnight at 37° C. Test compounds were made up in DMSO and a 1/3 dilution series prepared in 100 μL cell media, added to cells (in triplicates) and incubated for 72 ho at 37° C. MTT was made up as a stock of 5 mg/mL in cell media and filter-sterilised. Media was removed from cells followed by a wash with 200 μL PBS. MTT solution was then added at 20 μL per well and incubated in the dark at 37° C. for 4 h. MTT solution was removed and cells again washed with 200 μL PBS. MTT dye was solubilised with 200 μL per well of DMSO with agitation.

SKUT-1 = test: 72-h MTT assay, SKUT-1; assay type: cell-based; conditions: Homo sapiens, SK-UT-1, 72 h, read-out: 72-h MTT IC50 SKUT-1; Table 3; Leiomyosarcoma
Protocol: as §2

U2OS = test: 72-h MTT assay, U2OS; assay type: cell-based; conditions: Homo sapiens, read-out: 72-h MTT IC50 U2OS, Table 3, Bone osteosarcoma
Protocol: as §2

Messa = test: 72-h MTT assay, Messa; assay type: cell-based; conditions: Homo sapiens, MES-SA, read-out: 72-h MTT IC50 Messa, Table 3, Uterine
Protocol: as §2

WI38 = test: 72-h MTT assay, WI38; assay type: cell-based; conditions: Homo sapiens, WI-38, 72 h, read-out: 72-h MTT IC50 WI38; Table 3; Foetal lung (non-transformed)
Protocol: as §2

DU-145 = test: 72-h MTT assay, DU-145; assay type: cell-based; conditions: Homo sapiens, DU-145, 72 h, read-out: 72-h MTT IC50 DU-145; Table 3; Prostate
Protocol: as §2

Saos-2 = test: 72-h MTT cytotoxicity assay, Saos-2; assay type: cell-based; conditions: Homo sapiens
In short: as §1

SK-N-MC = test: 72-h MTT assay, SK-N-MC; assay type: cell-based; conditions: Homo sapiens, read-out: 72-h MTT IC50 SK-N-MC, Table 3, Neuroblastoma
Protocol: as §2

Lovo = test: 72-h MTT assay, Lovo; assay type: cell-based; conditions: Homo sapiens, read-out: 72-h MTT IC50 Lovo, Table 3, Colon
Protocol: as §2

CDK2/cyclin E = target: T1, CDK2/cyclin E (Homo sapiens, UniProt P24941); test: Kinase assay CDK2/cyclin E; assay type: biochemical; conditions: Table 1; read-out: Kinase inhibition, IC50 (μM) CDK2/E
T1 construct: His6

HL60 = test: 72-h MTT assay, HL60; assay type: cell-based; conditions: Homo sapiens, HL-60, 72 h, read-out: 72-h MTT IC50 HL60; Table 3; Promyelocytic leukaemia
Protocol: as §2

A549 = test: 72-h MTT cytotoxicity assay, A549; assay type: cell-based, human; conditions: Homo sapiens
Hs27 = test: 72-h MTT assay, Hs27; assay type: cell-based; conditions: Homo sapiens, HS27, 72 h, read-out: 72-h MTT IC50 Hs27; Table 3; Foreskin fibroblast (non-transformed)
Protocol: as §2

Messa-Dx5 = test: 72-h MTT assay, Messa-Dx5; assay type: cell-based; conditions: Homo sapiens, MES-SA/Dx5, 72 h, read-out: 72-h MTT IC50 Messa-Dx5; Table 3; Uterine
Protocol: as §2

SJSA-1 = test: 72-h MTT assay, SJSA-1; assay type: cell-based; conditions: Homo sapiens, SJSA-1, 72 h, read-out: 72-h MTT IC50 SJSA-1; Table 3; Osteogenic sarcoma
Protocol: as §2

Hacat = test: 72-h MTT assay, Hacat; assay type: cell-based; conditions: Homo sapiens, read-out: 72-h MTT IC50 Hacat, Table 3, Skin keratinocytes
Protocol: as §2

CCRF-CEM = test: 72-h MTT assay, CCRF-CEM; assay type: cell-based; conditions: Homo sapiens, read-out: 72-h MTT IC50 CCRF-CEM, Table 3, Leukaemia
Protocol: as §2

CDK4/cyclin D1 = CDK4/cyclin D1 (Homo sapiens, UniProt P11802); test: Kinase assay CDK4/cyclin D1;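 note: Enzyme: His6-tagged recombinant human CDK4 produced in baculovirus-infected Sf9 insect cells and purified by metal-chelate chromatography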
tumour cells = test: 72-h MTT assay, mean over tumour cell lines; assay type: cell-based; conditions: Homo sapiens, Table 3
Protocol: as §2

MCF-7 = test: 72-h MTT assay, MCF-7; assay type: cell-based; conditions: Homo sapiens, MCF7, 72 h, read-out: 72-h MTT IC50 MCF-7; Table 3; Breast
Protocol: as §2

IMR-90 = test: 72-h MTT assay, IMR-90; assay type: cell-based; conditions: Homo sapiens, IMR-90, 72 h, read-out: 72-h MTT IC50 IMR-90; Table 3; Foetal lung fibroblast (non-transformed)
Protocol: as §2

SKUT-1B = test: 72-h MTT assay, SKUT-1B; assay type: cell-based; conditions: Homo sapiens, Skut1B, read-out: 72-h MTT IC50 SKUT-1B, Table 3, Leiomyosarcoma
Protocol: as §2

K562 = test: 72-h MTT assay, K562; assay type: cell-based; conditions: Homo sapiens, K562, 72 h, read-out: 72-h MTT IC50 K562; Table 3; Chronic myelogenous leukaemia
Protocol: as §2

nci-H460 = test: 72-h MTT assay, nci-H460; assay type: cell-based; conditions: Homo sapiens, NCI-H460, 72 h, read-out: 72-h MTT IC50 nci-H460; Table 3; Lung
Protocol: as §2

AGS = test: 72-h MTT assay, AGS; assay type: cell-based; conditions: Homo sapiens, read-out: 72-h MTT IC50 AGS, Table 3, Gastric adenocarcinoma
Protocol: as §2

H1299 = test: 72-h MTT assay, H1299; assay type: cell-based; conditions: Homo sapiens, NCI-H1299, 72 h, read-out: 72-h MTT IC50 H1299; Table 3; Lung
Protocol: as §2

Hela = test: 72-h MTT assay, Hela; assay type: cell-based; conditions: Homo sapiens, read-out: 72-h MTT IC50 Hela, Table 3, Cervix
Protocol: as §2

Sequence of CDK4/cyclin D1 (P11802 whole entry): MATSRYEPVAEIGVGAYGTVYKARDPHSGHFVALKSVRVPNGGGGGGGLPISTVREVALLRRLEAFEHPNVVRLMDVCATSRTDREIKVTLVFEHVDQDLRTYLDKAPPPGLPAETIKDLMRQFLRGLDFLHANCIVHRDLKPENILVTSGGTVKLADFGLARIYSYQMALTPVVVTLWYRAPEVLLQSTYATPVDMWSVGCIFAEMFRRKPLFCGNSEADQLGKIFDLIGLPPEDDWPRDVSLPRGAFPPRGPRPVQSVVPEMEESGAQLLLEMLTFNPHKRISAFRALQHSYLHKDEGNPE
Sequence of CDK4/cyclin D1 (P24385 whole entry partner): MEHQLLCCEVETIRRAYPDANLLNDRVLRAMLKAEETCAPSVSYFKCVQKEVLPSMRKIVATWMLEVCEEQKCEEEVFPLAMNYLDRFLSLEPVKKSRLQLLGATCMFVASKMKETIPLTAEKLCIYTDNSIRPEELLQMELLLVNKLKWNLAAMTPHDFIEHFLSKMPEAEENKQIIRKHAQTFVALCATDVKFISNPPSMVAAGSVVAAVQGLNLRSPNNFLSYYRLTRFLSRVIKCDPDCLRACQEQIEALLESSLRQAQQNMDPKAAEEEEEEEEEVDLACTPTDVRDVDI

- IC50 (HCT-116): 280 nM
- IC50 (SKUT-1): 300 nM
- IC50 (U2OS): 500 nM
- IC50 (DU-145): 750 nM
- IC50 (SK-N-MC): 280 nM
- IC50 (Lovo): 130 nM
- IC50 (CDK2/cyclin E): 0.05 µM
- IC50 (HL60): 70 nM
- IC50 (SJSA-1): 850 nM
- IC50 (CCRF-CEM): 260 nM
- IC50 (CDK4/cyclin D1): 240 nM
- IC50 (tumour cells): 280 nM
- IC50 (MCF-7): 190 nM
- IC50 (SKUT-1B): 40 nM
- IC50 (K562): 150 nM
- IC50 (nci-H460): 180 nM
- IC50 (AGS): 300 nM
- IC50 (H1299): 270 nM
- IC50 (Hela): 140 nM
Structure (SMILES): Cc1nc(N)sc1-c1ccnc(Nc2cccc(I)c2)n1 [Compound 10, [4-(2-Amino-4-methyl-thiazol-5-yl)-pyrimidin-2-yl]-(3-iodo-phenyl)-amine]
- IC50 (HT29; HT-29, 72 h, read-out: 72-h MTT IC50 HT29, Table 3, Colon): 0.1 µM
- IC50 (HT29; HT-29, read-out: 72-h MTT in vitro IC50 (μM) HT29, Table 1, 72 h): 0.51 µM
- IC50 (Messa): 110 nM
- IC50 (WI38): > 5000 nM
- IC50 (Saos-2; SAOS-2, 72 h, read-out: 72-h MTT IC50 Saos-2, Table 3, Bone osteosarcoma): 0.43 µM
- IC50 (Saos-2; SAOS-2, read-out: 72-h MTT in vitro IC50 (μM) Saos-2, Table 1, 72 h): 0.58 µM
- IC50 (A549; A549, 72 h, read-out: 72-h MTT IC50 A549, Table 3, Lung): 0.6 µM
- IC50 (A549; A549, read-out: 72-h MTT in vitro IC50 (μM) A549, Table 1, 72 h): 0.29 µM
- IC50 (Hs27): > 5000 nM
- IC50 (Messa-Dx5): 130 nM
- IC50 (Hacat): 170 nM
- IC50 (IMR-90): > 5000 nM
